Measured values as given in patent US10517889B2, “Modulators of SMAD7 expression” (Ionis Pharmaceuticals, Inc., priority 2017, dated 2019).
Several values for one entry are separate records, joined by “and”; a condition that tells them apart may be missing. Equal entries are not always repeated. Strand notation (5' to 3'): a small letter for the sugar, then the base; units joined by * are phosphorothioate-linked, units joined directly phosphodiester-linked; [ ] holds rarer units or linkages, { } end groups; capitals alone tell only the bases. k = constrained ethyl (cEt); [5mC] = 5-methylcytosine; d = 2'-deoxy (DNA)

What was measured:
human SMAD7 mRNA [1] = experiment: Dose-dependent inhibition of human SMAD7 mRNA expression in Hep3B cells (Example 3, Study 1 and 2); format: cell-based; settings: electroporation; for % inhibition of SMAD7 mRNA expression: approximately 16 hours; for IC50: Study 2 (740-20000 nM)
Description: The antisense oligonucleotides were tested in a series of experiments that had similar culture conditions as described below.
(§1) Cells were plated at a density of 20,000 cells per well and transfected using electroporation with 0.31 μM, 1.25 μM, 5.00 μM, or 20.00 μM concentrations of antisense oligonucleotide, as specified in the Tables below. ION 483663 was included in the assays for comparison. After a treatment period of approximately 16 hours, RNA was isolated from the cells and SMAD7 mRNA levels were measured by quantitative real-time PCR. Primer probe set RTS5062 was used to measure human SMAD7 mRNA levels. SMAD7 mRNA levels were adjusted according to total RNA content, as measured by RIBOGREEN®. Results are presented as percent inhibition of SMAD7 mRNA expression, relative to untreated control cells.
The half maximal inhibitory concentration (IC50) of each oligonucleotide is also presented.
as §1, with “0.74” for “0.31”, “2.22” for “1.25”, “6.67” for “5.00”, “below.” for “below. ION 483663 was included in the assays for comparison.”

human SMAD7 mRNA [2] = experiment: Antisense inhibition of human SMAD7 mRNA expression in Hep3B cells by 3-10-3 cEt gapmers, 10,000 nM, electroporation (Example 2); format: cell-based; settings: approximately 24 hours
Outline: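 qRT-PCR (RTS5062) of SMAD7 mRNA, normalised to RIBOGREEN total RNA, gave percent inhibition relative to untreated controls. Hep3B cells at 20,000 per well received 10,000 nM oligonucleotide by electroporation, with ~24 h treatment.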

[3] = 740 nM, Study 2, relative to untreated control cells
[4] = Hep3B cells, electroporation with 10,000 nM antisense oligonucleotide, primer probe set RTS5062, relative to untreated control cells
[5] = Hep3B cells, electroporation with 10,000 nM antisense oligonucleotide, SMAD7 mRNA by RT-PCR (RTS5062), relative to untreated control cells
[6] = Hep3B cells, electroporation, 10,000 nM antisense oligonucleotide, RTS5062, relative to untreated control cells
[7] = Hep3B cells, electroporation with 10,000 nM antisense oligonucleotide, RTS5062, percent inhibition of SMAD7 mRNA relative to untreated control cells

Row | Substance | % inhibition of SMAD7 mRNA expression (human SMAD7 mRNA [1]; [3]) [%] | % inhibition of SMAD7 mRNA expression (human SMAD7 mRNA [1]; 2220 nM, Study 2) | % inhibition of SMAD7 mRNA expression (human SMAD7 mRNA [1]; 6670.0 nM, Study 2) | % inhibition of SMAD7 mRNA expression (human SMAD7 mRNA [1]; 20000.0 nM, Study 2) | IC50 (human SMAD7 mRNA [1]) [µM] | % inhibition of SMAD7 mRNA expression (human SMAD7 mRNA [2]; [4]) [%] | % Inhibition (human SMAD7 mRNA [2]; [5]) [%] | % Inhibition (human SMAD7 mRNA [2]; SMAD7 mRNA, Hep3B cells, 10,000 nM antisense oligonucleotide, electroporation, primer probe set RTS5062, relative to untreated control cells) [%] | % inhibition of SMAD7 mRNA expression (human SMAD7 mRNA [2]; [6]) [%] | % Inhibition (human SMAD7 mRNA [2]; [7]) [%]
1 | 799382 (antisense kA*k[5mC]*kT*dT*dT*dT*dA*dG*d[5mC]*dA*dA*dA*d[5mC]*kA*kG*kA) [compound 799382] | 0 | 36% | 56% | 75% | 3 | 82 |  |  |  | 
2 | 799396 (antisense kT*kG*kT*dT*dA*d[5mC]*dA*dA*dA*dT*dA*d[5mC]*dA*kG*kA*kG) [compound 799396] |  | 52% and 38% | 72% and 70% | 78% and 85% |  |  | 69 | 66 |  | 
3 | 799402 (antisense kG*kG*kT*d[5mC]*dA*d[5mC]*dT*dG*dT*dT*d[5mC]*dT*d[5mC]*kT*k[5mC]*kT) [compound 799402] | 0 | 3% | 13% | 50% | 10 | 66 |  |  |  | 
4 | 799404 (antisense kG*kG*kA*dA*d[5mC]*dA*dT*dT*dT*dA*d[5mC]*d[5mC]*d[5mC]*k[5mC]*kT*kG) [compound 799404] | 15 | 39% | 42% | 59% | 2 | 68 |  |  |  | 
5 | 799406 (antisense kG*kG*kG*dA*dA*d[5mC]*dA*dT*dG*dG*d[5mC]*d[5mC]*dT*kT*kT*k[5mC]) [compound 799406] | 30 | 51% | 77% | 84% | 3 | 65 |  |  |  | 
6 | 799410 (antisense kT*k[5mC]*kT*dG*dT*dT*dT*dA*d[5mC]*dA*d[5mC]*dA*d[5mC]*kA*kT*kT) [compound 799410] | 26 | 42% | 64% | 74% | 2 |  | 79 |  |  | 
7 | 799412 (antisense kT*kT*k[5mC]*dT*dT*dA*d[5mC]*dA*d[5mC]*dA*dG*d[5mC]*dA*kG*k[5mC]*kG) [compound 799412] | 35 | 51% | 67% | 65% | 4 |  | 60 |  |  | 
8 | 799429 (antisense k[5mC]*kA*k[5mC]*dA*dA*dG*dT*d[5mC]*dA*d[5mC]*dA*dA*d[5mC]*kT*kG*kG) [compound 799429] | 24 | 50% | 60% | 63% | 7 |  | 74 |  |  | 
9 | 799467 (antisense kG*k[5mC]*kA*dG*dA*d[5mC]*dA*dG*dA*dA*dG*d[5mC]*dT*k[5mC]*kT*kA) [compound 799467] | 4 | 27% | 65% | 57% | > 20 |  | 69 |  |  | 
10 | 799471 (antisense k[5mC]*kA*k[5mC]*dA*dG*dA*dA*dA*dA*dG*d[5mC]*dT*d[5mC]*k[5mC]*kG*k[5mC]) [compound 799471] | 0 | 9% | 14% | 46% | 5 |  | 71 |  |  | 
11 | 799486 (antisense k[5mC]*kA*kT*dA*dA*dT*dG*dA*d[5mC]*dT*dT*dA*dT*k[5mC]*k[5mC]*kA) [compound 799486] | 20 | 17% | 57% | 88% | 11 |  | 52 |  |  | 
12 | 799496 (antisense kG*kG*kG*dT*dG*dA*dG*dG*dT*dG*dG*d[5mC]*dT*kG*k[5mC]*kG) [compound 799496] | 3 | 12% | 34% | 69% | 3 | 72 |  |  |  | 
13 | 799509 (antisense kA*kG*kA*dA*dA*d[5mC]*dA*dG*dT*d[5mC]*dT*d[5mC]*d[5mC]*kA*k[5mC]*kA) [compound 799509] | 21 | 54% | 69% | 87% | 12 |  | 57 |  |  | 
14 | 799511 (antisense kT*kA*kA*dT*dG*dA*d[5mC]*dA*dA*dT*dT*d[5mC]*d[5mC]*kA*kG*k[5mC]) [compound 799511] | 0 | 0% | 35% | 65% | 3 |  | 65 |  |  | 
15 | 799534 (kG*kA*kG*dA*dA*dT*dG*dA*dA*dG*dT*d[5mC]*d[5mC]*kA*kG*kA; antisense) [compound 799534] | 16 | 60% | 51% | 86% | 1 |  |  |  | 68 | 
16 | 799540 (kA*kG*k[5mC]*dT*dG*dA*dA*dG*d[5mC]*d[5mC]*d[5mC]*d[5mC]*d[5mC]*k[5mC]*kA*kA; antisense) [compound 799540] | 41 | 60% | 63% | 73% | 5 |  |  |  | 76 | 
17 | 799543 (kT*k[5mC]*kA*dA*dA*dT*dG*d[5mC]*dA*dT*dG*dA*dG*kT*kT*kA; antisense) [compound 799543] | 13 | 26% | 61% | 75% | 5 |  |  |  | 65 | 
18 | 799544 (kT*kT*k[5mC]*dA*dA*d[5mC]*dA*dA*dG*dT*dT*d[5mC]*d[5mC]*k[5mC]*kT*kA; antisense) [compound 799544] | 19 | 38% | 54% | 73% | 4 |  |  |  |  | 72
19 | 799556 (kA*k[5mC]*kA*dA*d[5mC]*dA*dA*dT*dG*d[5mC]*dT*d[5mC]*dT*kG*kG*k[5mC]; antisense) [compound 799556] | 0 | 50% | 71% | 71% | 2 |  |  |  | 68 | 
20 | 799563 (kA*kA*kA*dA*d[5mC]*dA*dA*dA*d[5mC]*dA*dA*dG*dG*kG*kT*k[5mC]; antisense) [compound 799563] | 32 | 57% | 85% | 88% | 5 |  |  |  | 68 | 
21 | 799564 (k[5mC]*kA*kG*dA*dT*dA*dA*d[5mC]*dA*dG*dA*dG*dT*kA*kT*kA; antisense) [compound 799564] | 13 | 41% | 60% | 73% | 3 |  |  |  |  | 70
